Assay results as given in patent publication US20260297127A1, “REVERSIBLE SURFACTANT AND MULTIFUNCTIONAL DRUG DELIVERY SYSTEMS BASED THEREON” (Yissum Research Development Company of the Hebrew …, priority 2023, published 2026).
Each block holds one compound with its values, some of them ahead of it. Peptide text beside a SMILES is read from it.

Tests used:
[1] = histidine residues; cited from earlier work
[2] = Encapsulation efficiency (% EE) in castor oil emulsions and solubility in the oil phase; assay type: physicochemical; conditions: for % EE (encapsulation efficiency) in words: castor oil emulsion
Experimental: The % EE values may be altered to fit different drugs by changing the oil phase or by changing the emulsion preparation parameters such as the oil-water ratio.
The encapsulation efficiency (% EE) values were determined by comparing the amount of the free compound in the aqueous phase with the initial concentration. The compounds were dissolved in castor oil with 10% (v/v) ethanol. […] The % EE values were calculated using the formula: % EE=(Cinitial−C(aq.))/Cinitial×100%, where Cinitial is the concentration of the compound in the emulsion and Caq. is the concentration of the compound in the aqueous phase after the centrifugation. The measurements were performed in triplicates.

[3] = in words; cited from earlier work
[4] = Zn^2+ ions for PTX; metal ions for the others; cited from earlier work
[5] = test system: cervical adenocarcinoma HeLa cells; assay: MTT cytotoxicity assay, 72 h incubation; assay type: cell-based; conditions: Homo sapiens, PTX on its own, dissolved in DMSO, read-out: half maximal inhibitory concentration (IC50)
Experimental: The ability to use these emulsions for drug delivery purposes was assessed using the 3-(4,5-dimethylthiazol-2-yl)-2,5-diphenyltetrazolium bromide (MTT) assay. The assay was conducted on cervical adenocarcinoma HeLa cells with the widely used drug paclitaxel (PTX). […] This poses significant disadvantages due to stability issues of the drug that can precipitate when diluted, causing therapeutic failures and possibly harming the patients. […] One way to overcome these complications is to administer the drug in an emulsion. An additional advantage of the system proposed herein is that the disassembly of the emulsion droplets will release the metal ions of the complex in addition to the PTX. […]
The complete cell-culture medium was prepared by the addition of 10% fetal bovine serum (FBS), 1% L-glutamine, and 1% Penicillin-Streptomycin (all purchased from Sartorius) to Dulbecco's Modified Eagle's Medium (DMEM, Sigma Aldrich). […] Afterwards, cytotoxicity was measured by the previously reported MTT method. […] The medium was removed and replaced with isopropanol (200 μL), and upon complete dissolution of the formazan, the absorbance was measured at 550 nm on a Spark 10 M multimode microplate reader spectrophotometer (Tecan Group Ltd., Mannedorf, Switzerland). […]

[6] = Emulsion formation and stability (mixing with non-aqueous phase, manual agitation); assay type: physicochemical; conditions: chloroform-water
From the text: We designed the peptide Trp-His-His-Trp (WHHW, SEQ ID NO 1), which contains a metal-binding dihistidine moiety surrounded by two hydrophobic amino acids. When an aqueous solution of the peptide and certain metal ions are mixed with a non-aqueous phase, an emulsion is formed (FIG. 1B). […] Depending on the ratio between the aqueous and non-aqueous phases, o/w or w/o emulsions can be formed (FIG. 1C). The peptide has weak inherent fluorescence, but its presence on the interface of the emulsion droplets was inferred by labeling it with fluorescein isothiocyanate (FITC) (FIG. 1D).
By increasing the pH again, the emulsion can be reassembled. With chloroform as the non-aqueous phase, the emulsion has a critical micelle concentration of ~0.2 mM and it is stable for at least 4 months at room temperature (FIG. 3A). Adding ethylenediaminetetraacetic acid (EDTA) to remove the metal ions visibly disassembled the emulsion after ~24 h (FIG. 3B).
The same peptide derivatives in the presence of Cu^2+ ions, were further mixed with chloroform and manually agitated to form emulsions (FIG. 8).
The emulsions were prepared by mixing a peptide solution with the metal ions to a final concentration of 1 mm each and adding NaOH to obtain pH=10. The desired non-aqueous phase was added to this solution at 50% (v/v) and the two phases were manually agitated to form the emulsions. […]

[7] = UV-vis titration / Benesi-Hildebrand plot / Job's plot of peptide with Cu^2+ ions; assay type: binding; conditions: read-out: stability constant (converted)
Experimental: FIG. 6. Benesi-Hildebrand plot. The stability constant derived from this plot was 6918.3±0.2 M^−1, similar to the known value for imidazole.
(FIG. 3A). […] A Job's plot was prepared as well with the peptide and Cu^2+ ions (FIG. 7B). In the samples with excess Cu^2+ ions (those above χ=0.5) the absorbance increased without an increase in the complex concentration. This may be because of the formation of Cu(OH)2 precipitates from the excess Cu^2+ ions due to the alkaline pH. To negate this effect, the absorbance values of solutions that contained the concentration of the excess Cu^2+ were subtracted from the original measurements. This yielded good linear fittings that indicate a 1:1 binding ratio.
For the UV-vis titration, a peptide solution (1.5 mm) was titrated with a CuCl2 solution (15 mM). The solutions were left for 5 min and the absorbance was measured using a UV-vis spectrophotometer (Shimadzu, UV-1650PC, Kyoto, Japan). For the Job's plot assay, peptide solutions with different mole fractions of Cu^2+ ions (up to 1 mm) were prepared at pH=9 and their absorbance values were measured.

[8] = Self-assembly of the peptide observed experimentally; assay type: physicochemical

Compound: c1c[nH]cn1 [imidazole]
pKa of the imidazole's amine [1]: ~ 6

solubility in castor oil [2]: low solubility
% EE (encapsulation efficiency) in words [2]: lower
Compound: Cc1ccc(C)c(N=Nc2cc(C)c(N=Nc3c(O)ccc4ccccc34)cc2C)c1 [Oil red O]
Solubility in water [3]: Insoluble

Compound: CC(=O)O[C@H]1C(=O)[C@@]2(C)[C@H]([C@H](OC(=O)c3ccccc3)[C@]3(O)C[C@H](OC(=O)[C@H](O)[C@@H](NC(=O)c4ccccc4)c4ccccc4)C(C)=C1C3(C)C)[C@]1(OC(C)=O)CO[C@@H]1C[C@@H]2O [Paclitaxel]
anti-tumor efficacy in presence of metal ions [4]: enhanced
IC50 [5]: 0.014 ± 0.005 µM
Solubility in water [3]: Insoluble

Compound: O=C1OC2(c3ccc(O)cc3Oc3cc(O)ccc32)c2ccc(N=C=S)cc21 [FITC, fluorescein isothiocyanate]
solubility in castor oil [2]: low solubility
% EE (encapsulation efficiency) in words [2]: lower
Solubility in water [3]: Insoluble

emulsion stability compared with WHHW ([6]; 1 mM peptide and 1 mM Cu^2+): less stable
Compound: N[C@@H](Cc1ccccc1)C(=O)N[C@@H](Cc1c[nH]cn1)C(=O)N[C@@H](Cc1c[nH]cn1)C(=O)N[C@@H](Cc1ccccc1)C(=O)O [FHHF, Phe-His-His-Phe] (H-FHHF-OH)

Kd [7]: 145 µM
self-assembled structure ([8]; 10 mM, water, 24 h): fibrous structures
formation of emulsions with Cu^2+ ions ([6]; 1 mM peptide derivative and 1 mM Cu^2+): formed emulsions
Compound: N[C@@H](Cc1c[nH]c2ccccc12)C(=O)N[C@@H](Cc1c[nH]cn1)C(=O)N[C@@H](Cc1c[nH]cn1)C(=O)N[C@@H](Cc1c[nH]c2ccccc12)C(=O)O [WHHW, Trp-His-His-Trp] (H-WHHW-OH)
self-assembled structure with Cu^2+ ions ([8]; 5 mM peptide, 5 mM Cu^2+): spherical aggregates alongside the fibrous structures

Compound: COc1cc(/C=C/C(=O)CC(=O)/C=C/c2ccc(O)c(OC)c2)ccc1O [curcumin]
anti-tumor efficacy in presence of metal ions [4]: promoted

Compound: CCN(CC)c1ccc2nc3c4ccccc4c(=O)cc-3oc2c1 [Nile red]
Solubility in water [3]: Insoluble

Compound: CCN(CC)C(=S)SSC(=S)N(CC)CC [Disulfiram]
anti-tumor efficacy in presence of metal ions [4]: promoted
